Laboratory results as given in patent publication US20240368125A1, “NOVEL PYRAZINYL-TRIAZOLE COMPOUNDS AS PESTICIDES” (Bayer Aktiengesellschaft, priority 2021, published 2024).

Key:
Assay type in all cases: in vivo
[1] = system: Rhipicephalus (Boophilus) microplus larvae (strain Parkhurst, resistant against synthetic pyrethroids); test: Rhipicephalus (Boophilus) microplus in-vitro contact test, larval cattle tick; settings: Rhipicephalus microplus; 1 μg/cm^2 (=100 g/ha), after 48 hours; read-out: efficacy (larvae dead or moribund)
How it was run: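 Compound in acetone coated on glass tube inner walls; 900 ppm solution gives 5 μg/cm^2. Pyrethroid-resistant Parkhurst larvae (20-50 per tube) held at 27° C., 85% relative humidity; efficacy assessed after 48 h by scoring negative geotactic behavior after tapping larvae to tube bottom.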

[2] = system: adult cat fleas (Ctenocephalides felis); test: Ctenocephalides felis in-vitro contact test, adult cat flea; settings: Ctenocephalides felis; 1 μg/cm^2 (=100 g/ha), after 48 hours; read-out: efficacy (fleas dead or moribund)
[3] = system: adult brown dog ticks (Rhipicephalus sanguineus); test: Rhipicephalus sanguineus in-vitro contact test, adult brown dog ticks; settings: Rhipicephalus sanguineus; 1 μg/cm^2 (=100 g/ha), after 48 hours; read-out: efficacy (ticks dead or moribund)
How it was run: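 Acetone solution rolled onto tube walls, 2 h at 30 rpm; 900 ppm → 5 μg/cm^2. Solvent evaporated, 5-10 adults/tube, perforated lid, lying, RT. 48 h: heat plate 45-50° C ≤5 min; immotile/uncoordinated = dead/moribund. 100% = all dead/moribund.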

[4] = system: green peach aphid (Myzus persicae); test: Myzus persicae spray test (MYZUPE); settings: in Brassica rapa, foliar, 120 h
How it was run: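 Chinese cabbage leaf disks infested with all instars of M. persicae sprayed with compound (acetone/DMF solvent, water with 1000 ppm alkylarylpolyglycol ether emulsifier) at the desired concentration. Percent mortality determined after 5 days; 100% = all aphids killed.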

[5] = system: fall armyworm larvae (Spodoptera frugiperda); test: Spodoptera frugiperda spray test (SPODFR); settings: 168 h; for mortality at 100 g/ha: in Zea mays
How it was run: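 Compound in acetone/dimethylformamide, diluted with water containing 1000 ppm alkylarylpolyglycol ether emulsifier. Maize leaf sections sprayed, dried, then infested with fall armyworm larvae. Mortality (%) scored after 7 days, 100% meaning all caterpillars killed.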

[6] = system: adult mosquitoes Anopheles funestus strain FUMOZ-R; test: Anopheles funestus test (ANPHFU surface treatment & contact assay); settings: 24 hours after contact, read-out: efficacy (mortality); for mortality at 4 mg/m2: surface concentration 4 mg/m^2, 30 min exposure; for mortality at 20 mg/m2: surface concentration 20 mg/m^2, 30 min exposure
Procedure: Anopheles funestus Test (ANPHFU Surface Treatment & Contact Assay
(§1) Solvent: Aceton+2000 ppm rapeseed oil methyl ester (RME)
In order to produce a sufficient, active ingredient containing solution it is necessary to solve the test compound in the solvent-mix (acetone at 2 mg/ml/RME 2000 ppm). This solution is pipetted onto a glazed tile and after evaporation of the acetone, adult mosquitoes of the species Anopheles funestus strain FUMOZ-R (Hunt et al., Med. Vet. Entomol. 2005 September; 19(3): 271-275) are placed onto the dried surface. The exposure time is 30 minutes. Mortality in percent (%) is determined 24 hours after contact of the insects to the treated surface. 100% mortality means that all tested insects are dead, whereas 0% means that no insect died.

[7] = system: adult Blattella germanica strain PAULINIA; test: Blattella germanica test (BLTTGE surface treatment & contact assay); settings: 24 hours after contact, read-out: efficacy (mortality); for mortality at 20 mg/m2: surface concentration 20 mg/m^2, 30 min exposure; for mortality at 4 mg/m2: surface concentration 4 mg/m^2, 30 min exposure
Procedure: Blattella germanica Test (BLTTGE Surface Treatment & Contact Assay
as §1
In order to produce a sufficient, active ingredient containing solution it is necessary to solve the test compound in the solvent-mix (acetone at 2 mg/ml/RME 2000 ppm). This solution is pipetted onto a glazed tile and after evaporation of the acetone, adult animals of the species Blattella germanica strain PAULINIA are placed onto the dried surface. The exposure time is 30 minutes.
Mortality in percent (%) is determined 24 hours after contact of the insects to the treated surface. 100% mortality means that all tested insects are dead, whereas 0% means that no insect died.

## C[C@H](NC(=O)c1cc(OC(F)(F)F)cc(C2CC2)c1)c1ncnn1-c1cnc(C(=O)N(C)C)cn1 [Example I-002]
[1]
  pest or weed control at 1 µg/cm2: 100%
[2]
  pest or weed control at 1 µg/cm2: 100%
[3]
  pest or weed control at 1 µg/cm2, 100 g/ha: 100%
[4]
  mortality at 100 g/ha: 90%
[5]; SPODFR, 4 g ai/ha, 7 dat, read-out: % Efficacy
  Emax at 4 g/ha: 100%
[5]; SPODFR, 20 g ai/ha, 7 dat, read-out: % Efficacy
  Emax at 20 g/ha: 100%
[5]; SPODFR, 100 g ai/ha, 7 dat, read-out: % Efficacy
  Emax at 100 g/ha: 100%
[5]
  mortality at 100 g/ha: 100%
[6]
  mortality at 4 mg/m2: 85 to 100%
  mortality at 20 mg/m2: 85 to 100%
[7]
  mortality at 20 mg/m2: 80 to 100%

## C[C@H](NC(=O)c1cc(C(F)(F)F)cc(C(F)(F)F)c1)c1ncnn1-c1cnc(C(=O)N(C)C2CC2)cn1 [Example I-007]
[1]
  pest or weed control at 1 µg/cm2: 100%
[2]
  pest or weed control at 1 µg/cm2: 100%
[3]
  pest or weed control at 1 µg/cm2, 100 g/ha: 100%
[4]
  mortality at 100 g/ha: 90%
[5]
  mortality at 100 g/ha: 100%
[7]
  mortality at 4 mg/m2: 80 to 100%
  mortality at 20 mg/m2: 80 to 100%

## C[C@H](NC(=O)c1cc(C(F)(F)F)cc(C(F)(F)F)c1)c1ncnn1-c1cnc(C(=O)N(C)CC2CC2)cn1 [Example I-008]
[1]
  pest or weed control at 1 µg/cm2: 100%
[2]
  pest or weed control at 1 µg/cm2: 100%
[3]
  pest or weed control at 1 µg/cm2, 100 g/ha: 100%
[4]
  mortality at 100 g/ha: 90%
[5]
  mortality at 100 g/ha: 100%
[7]
  mortality at 4 mg/m2: 80 to 100%
  mortality at 20 mg/m2: 80 to 100%

## CNC(=O)c1cnc(-n2ncnc2[C@H](C)NC(=O)c2cc(C(F)(F)F)cc(C(F)(F)F)c2)cn1 [Example I-009]
[1]
  pest or weed control at 1 µg/cm2: 100%
[2]
  pest or weed control at 1 µg/cm2: 100%
[3]
  pest or weed control at 1 µg/cm2, 100 g/ha: 100%
[4]
  mortality at 100 g/ha: 90%
[5]
  mortality at 100 g/ha: 100%
[6]
  mortality at 4 mg/m2: 85 to 100%
  mortality at 20 mg/m2: 85 to 100%
[7]
  mortality at 4 mg/m2: 80 to 100%
  mortality at 20 mg/m2: 80 to 100%

## CNC(=O)c1cnc(-n2ncnc2[C@H](C)NC(=O)c2cc(OC(F)(F)F)cc(C3CC3)c2)cn1 [Example I-021]
[1]
  pest or weed control at 1 µg/cm2: 100%
[2]
  pest or weed control at 1 µg/cm2: 100%
[3]
  pest or weed control at 1 µg/cm2, 100 g/ha: 100%
[4]
  mortality at 100 g/ha: 90%
[5]
  mortality at 100 g/ha: 100%
[7]
  mortality at 4 mg/m2: 80 to 100%
  mortality at 20 mg/m2: 80 to 100%
